Tested on: NCI-H1417 complex spheroids, growth % test/control
Test: Anticancer human tumor NCI-H1417 cell line growth inhibition [Asc];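 further: spheroids exposed to compounds for 7 days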;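 on viability, T/C: 100% = DMSO vehicle control wells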
Conditions: for IC50: curve of first compound; for viability, T/C: stronger effect = lower value
Summary of the method: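 Tumor cells were grown as multicellular spheroids with stromal HUVEC and mesenchymal stem cells and treated singly or in combination. Concentrations fell in half-log steps from the clinical Cmax, or from 10 microM where none was known.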

[1] = second compound 0.03 µM, first compound 0.0316 µM
[2] = second compound 0.03 µM, first compound 0.1 µM
[3] = second compound 0.03 µM, first compound 0.316 µM
[4] = second compound 0.03 µM, first compound 1 µM
[5] = second compound 0.0949 µM, first compound 0.0316 µM
[6] = second compound 0.0949 µM, first compound 0.1 µM
[7] = second compound 0.0949 µM, first compound 0.316 µM
[8] = second compound 0.0949 µM, first compound 1 µM
[9] = second compound 0.3 µM, first compound 0.0316 µM
[10] = second compound 0.3 µM, first compound 0.1 µM
[11] = second compound 0.3 µM, first compound 0.316 µM
[12] = second compound 0.3 µM, first compound 1 µM
[13] = second compound 0.949 µM, first compound 0.0316 µM
[14] = second compound 0.949 µM, first compound 0.1 µM
[15] = second compound 0.949 µM, first compound 0.316 µM
[16] = second compound 0.949 µM, first compound 1 µM
[17] = second compound 3 µM, first compound 0.0316 µM
[18] = second compound 3 µM, first compound 0.1 µM
[19] = second compound 3 µM, first compound 0.316 µM
[20] = second compound 3 µM, first compound 1 µM
[21] = second compound 0.03 µM, first compound 0.00316 µM
[22] = second compound 0.03 µM, first compound 0.01 µM
[23] = second compound 0.0949 µM, first compound 0.00316 µM
[24] = second compound 0.0949 µM, first compound 0.01 µM
[25] = second compound 0.3 µM, first compound 0.00316 µM
[26] = second compound 0.3 µM, first compound 0.01 µM
[27] = second compound 0.949 µM, first compound 0.00316 µM
[28] = second compound 0.949 µM, first compound 0.01 µM
[29] = second compound 3 µM, first compound 0.00316 µM
[30] = second compound 3 µM, first compound 0.01 µM

SMILES: CCN1C(C(=O)NC23CCC(C(=O)O)(CC2)CC3)C(c2cccc(Cl)c2F)C2(C(=O)Nc3cc(Cl)ccc32)C12CCCCC2 (stereo not given) + CNC(C)C(=O)NC1CN(S(=O)(=O)c2cccc(S(=O)(=O)N3CCC4CCC(C(=O)NC(c5ccccc5)c5ccccc5)N4C(=O)C(NC(=O)C(C)NC)C3)c2)CCC2CCC(C(=O)NC(c3ccccc3)c3ccccc3)N2C1=O
- IC50 (second compound 0.01 µM): > 3000 nM
- IC50 (second compound 0.0316 µM): > 3000 nM
- IC50 (second compound 0.1 µM): > 3000 nM
- IC50 (second compound 0.316 µM): > 3000 nM
- IC50 (second compound 1 µM): > 3000 nM
- viability, T/C (second compound 0.01 µM, first compound 0.00949 µM): 105%
- viability, T/C (second compound 0.01 µM, first compound 0.03 µM): 104%
- viability, T/C (second compound 0.01 µM, first compound 0.0949 µM): 105%
- viability, T/C (second compound 0.01 µM, first compound 0.3 µM): 99.7%
- viability, T/C (second compound 0.01 µM, first compound 0.949 µM): 106%
- viability, T/C (second compound 0.01 µM, first compound 3 µM): 120%
- viability, T/C (second compound 0.0316 µM, first compound 0.00949 µM): 107%
- viability, T/C (second compound 0.0316 µM, first compound 0.03 µM): 118%
- viability, T/C (second compound 0.0316 µM, first compound 0.0949 µM): 106%
- viability, T/C (second compound 0.0316 µM, first compound 0.3 µM): 86%
- viability, T/C (second compound 0.0316 µM, first compound 0.949 µM): 101%
- viability, T/C (second compound 0.0316 µM, first compound 3 µM): 96.2%
- viability, T/C (second compound 0.1 µM, first compound 0.00949 µM): 103%
- viability, T/C (second compound 0.1 µM, first compound 0.03 µM): 102%
- viability, T/C (second compound 0.1 µM, first compound 0.0949 µM): 99.7%
- viability, T/C (second compound 0.1 µM, first compound 0.3 µM): 88.6%
- viability, T/C (second compound 0.1 µM, first compound 0.949 µM): 95.7%
- viability, T/C (second compound 0.1 µM, first compound 3 µM): 120%
- viability, T/C (second compound 0.316 µM, first compound 0.00949 µM): 105%
- viability, T/C (second compound 0.316 µM, first compound 0.03 µM): 95.1%
- viability, T/C (second compound 0.316 µM, first compound 0.0949 µM): 105%
- viability, T/C (second compound 0.316 µM, first compound 0.3 µM): 102%
- viability, T/C (second compound 0.316 µM, first compound 0.949 µM): 104%
- viability, T/C (second compound 0.316 µM, first compound 3 µM): 108%
- viability, T/C (second compound 1 µM, first compound 0.00949 µM): 110%
- viability, T/C (second compound 1 µM, first compound 0.03 µM): 108%
- viability, T/C (second compound 1 µM, first compound 0.0949 µM): 106%
- viability, T/C (second compound 1 µM, first compound 0.3 µM): 108%
- viability, T/C (second compound 1 µM, first compound 0.949 µM): 95.4%
- viability, T/C (second compound 1 µM, first compound 3 µM): 106%

SMILES: C#Cc1c(F)ccc2cc(O)cc(-c3ncc4c(N5CC6CCC(C5)N6)nc(OCC56CCCN5CC(F)C6)nc4c3F)c12 (stereo not given) + CCN1C(C(=O)NC23CCC(C(=O)O)(CC2)CC3)C(c2cccc(Cl)c2F)C2(C(=O)Nc3cc(Cl)ccc32)C12CCCCC2
- IC50 (second compound 0.03 µM): > 10000 nM
- IC50 (second compound 0.0949 µM): > 10000 nM
- IC50 (second compound 0.3 µM): > 10000 nM
- IC50 (second compound 0.949 µM): > 10000 nM
- IC50 (second compound 3 µM): > 10000 nM
- viability, T/C [1]: 101%
- viability, T/C [2]: 106%
- viability, T/C [3]: 106%
- viability, T/C [4]: 102%
- viability, T/C (second compound 0.03 µM, first compound 3.16 µM): 103%
- viability, T/C (second compound 0.03 µM, first compound 10 µM): 111%
- viability, T/C [5]: 107%
- viability, T/C [6]: 103%
- viability, T/C [7]: 93.9%
- viability, T/C [8]: 95.2%
- viability, T/C (second compound 0.0949 µM, first compound 3.16 µM): 108%
- viability, T/C (second compound 0.0949 µM, first compound 10 µM): 109%
- viability, T/C [9]: 98.2%
- viability, T/C [10]: 94.7%
- viability, T/C [11]: 94.8%
- viability, T/C [12]: 105%
- viability, T/C (second compound 0.3 µM, first compound 3.16 µM): 108%
- viability, T/C (second compound 0.3 µM, first compound 10 µM): 108%
- viability, T/C [13]: 88.2%
- viability, T/C [14]: 96.9%
- viability, T/C [15]: 97.3%
- viability, T/C [16]: 88.3%
- viability, T/C (second compound 0.949 µM, first compound 3.16 µM): 84%
- viability, T/C (second compound 0.949 µM, first compound 10 µM): 77.3%
- viability, T/C [17]: 91%
- viability, T/C [18]: 88.1%
- viability, T/C [19]: 105%
- viability, T/C [20]: 88.7%
- viability, T/C (second compound 3 µM, first compound 3.16 µM): 89.5%
- viability, T/C (second compound 3 µM, first compound 10 µM): 95.7%

SMILES: NC1CCC(NC2CC2c2ccccc2)CC1 (stereo not given) + CCN1C(C(=O)NC23CCC(C(=O)O)(CC2)CC3)C(c2cccc(Cl)c2F)C2(C(=O)Nc3cc(Cl)ccc32)C12CCCCC2
- IC50 (second compound 0.03 µM): > 100 nM
- IC50 (second compound 0.0949 µM): > 100 nM
- IC50 (second compound 0.3 µM): > 100 nM
- IC50 (second compound 0.949 µM): > 100 nM
- IC50 (second compound 3 µM): > 100 nM
- viability, T/C (second compound 0.03 µM, first compound 0.000316 µM): 86%
- viability, T/C (second compound 0.03 µM, first compound 0.001 µM): 73.9%
- viability, T/C [21]: 74.5%
- viability, T/C [22]: 71.3%
- viability, T/C [1]: 78.6%
- viability, T/C [2]: 73.1%
- viability, T/C (second compound 0.0949 µM, first compound 0.000316 µM): 80.5%
- viability, T/C (second compound 0.0949 µM, first compound 0.001 µM): 78.3%
- viability, T/C [23]: 63.5%
- viability, T/C [24]: 69.8%
- viability, T/C [5]: 73.1%
- viability, T/C [6]: 66%
- viability, T/C (second compound 0.3 µM, first compound 0.000316 µM): 79.7%
- viability, T/C (second compound 0.3 µM, first compound 0.001 µM): 64.8%
- viability, T/C [25]: 65%
- viability, T/C [26]: 61%
- viability, T/C [9]: 63.8%
- viability, T/C [10]: 62.5%
- viability, T/C (second compound 0.949 µM, first compound 0.000316 µM): 78.3%
- viability, T/C (second compound 0.949 µM, first compound 0.001 µM): 64.9%
- viability, T/C [27]: 67.6%
- viability, T/C [28]: 60.7%
- viability, T/C [13]: 60.2%
- viability, T/C [14]: 61.5%
- viability, T/C (second compound 3 µM, first compound 0.000316 µM): 76.9%
- viability, T/C (second compound 3 µM, first compound 0.001 µM): 65.9%
- viability, T/C [29]: 62.4%
- viability, T/C [30]: 59.2%
- viability, T/C [17]: 55.3%
- viability, T/C [18]: 67.5%

SMILES: COc1c(OCCCN2CCOCC2)ccc2c3n(c(=NC(=O)c4cnc(N)nc4)nc12)CCN3 + CCN1C(C(=O)NC23CCC(C(=O)O)(CC2)CC3)C(c2cccc(Cl)c2F)C2(C(=O)Nc3cc(Cl)ccc32)C12CCCCC2
- IC50 (second compound 0.03 µM): > 1000 nM
- IC50 (second compound 0.0949 µM): > 1000 nM
- IC50 (second compound 0.3 µM): > 1000 nM
- IC50 (second compound 0.949 µM): 484 nM
- IC50 (second compound 3 µM): 243 nM
- viability, T/C [21]: 107%
- viability, T/C [22]: 114%
- viability, T/C [1]: 95.8%
- viability, T/C [2]: 100%
- viability, T/C [3]: 96.7%
- viability, T/C [4]: 59.2%
- viability, T/C [23]: 94.6%
- viability, T/C [24]: 96.7%
- viability, T/C [5]: 87.2%
- viability, T/C [6]: 90.3%
- viability, T/C [7]: 80.5%
- viability, T/C [8]: 58.7%
- viability, T/C [25]: 93.2%
- viability, T/C [26]: 93.6%
- viability, T/C [9]: 81.2%
- viability, T/C [10]: 74.8%
- viability, T/C [11]: 57.6%
- viability, T/C [12]: 51.5%
- viability, T/C [27]: 89.6%
- viability, T/C [28]: 92.2%
- viability, T/C [13]: 81%
- viability, T/C [14]: 64.9%
- viability, T/C [15]: 55.8%
- viability, T/C [16]: 43.6%
- viability, T/C [29]: 92.4%
- viability, T/C [30]: 89.8%
- viability, T/C [17]: 86.7%
- viability, T/C [18]: 63.1%
- viability, T/C [19]: 47.7%
- viability, T/C [20]: 36%
